SMILES strings stand for the structures.

Type in all cases: in vivo
In test [1] the test system is Amaranthus palmeri. In words: Growth-chamber post-emergence herbicidal assay (Example 2). Here is the method:
(§1) Herbicidal activity was determined by post-emergence application on 8-day old plants (weeds) of the Amaranthus palmeri and Setaria viridis species that were grown at 16 hours/8 hours day/night cycles at 30° C./25° C., respectively. Leaf stage was typically 4-6 for A. palmeri and 3-4 for S. viridis.
(§2) In each treatment, 2-3 pots, each containing about 5 plants each (for Setaria viridis), and one 9-pack, containing about 9 plants (for Amaranthus palmeri), were sprayed using a VL-SET Paasche Airbrush with 0.3-1.5 ml solution containing 0.125-2 mg/ml of a tested compound, which is equivalent to about 125-2000 g/ha.
(§3) Damage assessment: Herbicidal activity was assessed and scored 3-4 days after application by visual inspection of the plants in comparison to plants treated with the formulation alone (with no active ingredient) as control. Activity score is in the range of 0 to 100, where 0 represents no herbicidal activity like control plants and 100 represents the maximal herbicidal activity (i.e., total death of the plant).
Formulation design: Compounds were tested on A. Palmeri in various formulations, and in varying concentrations for each of the tested formulations, in order to determine optimal conditions for its application and performance. Activity scores were determined as described hereinabove. Solubility scores were determined by visual inspection on a scale of 1-10, with 10 representing complete solubilization and 1 represents nullified solubilization.
Each of the obtained solution was then mixed with different adjuvants and applied at a rate equivalent to 500 g/ha for A. palmeri and 1000 g/ha for S. viridis. Herbicidal activity scores 3-4 days after application are presented Table 3 below.

The test system of test [2] is Setaria viridis. The description is as above. As for the experimental part:
as §1, §2, §3
Herbicidal activity scores 3-4 days after application are presented Table 3 below.

For test [3], the system named is Amaranthus palmeri. Nature of the test: Growth-chamber post-emergence assay (Example 8). Here is the method: (§4) Herbicidal activity of Compounds 1B, 3, 4, 5 and 6 was determined by post-emergence application on 8-day old plants (weeds) of the Amaranthus palmeri and Setaria viridis species that were grown at 16 hours/8 hours day/night cycles at 30° C./25° C., respectively. Leaf stage was typically 4-6 for A. palmeri and 3-4 for S. viridis.
(§5) In each treatment, between 1 to 4 pots (8×12 cm), containing about 6 Amaranthus palmeri or Setaria viridis plants, were sprayed using a VL-SET Paasche Airbrush with a 1 ml-solution containing 0.250-2 mg/ml of the tested compound, which is equivalent to about 250-2000 g/ha.
as §3

Test [4] has as its system Setaria viridis. In words: Growth-chamber post-emergence assay (Example 8). As for the experimental part:
as §4, §5, §3

[5] abbreviates: 250 g/ha, 2% MIPA, 2% DMSO, 0.25% Genapol, 2% HASTEN.
The mark [6] stands for this setting: 500 g/ha, 2% MIPA, 2% DMSO, 0.25% Genapol, 2% HASTEN.
Where [7] appears, read: 1000 g/ha, 2% MIPA, 2% DMSO, 0.25% Genapol, 2% HASTEN, 3-4 days after application, scale 0-100.
[8] abbreviates: 1000 g/ha, 8.6% Acetophenone, 1% TWEEN 80, 1.4% NMP, 0.5% ECO, 0.5% Ca-LAS, 0.05% Break-Thru.
[9] abbreviates: 2000 g/ha, 8.6% Acetophenone, 2% TWEEN 20, 1.4% NMP, 0.5% ECO, 0.5% Ca-LAS, 0.05% Break-Thru.
Where [10] appears, read: 250 g/ha, 10% Acetone, 1.85% MIPA, 5% DMSO, 0.23% Genapol, 1.85% HASTEN.
Setting [11] is: 500 g/ha, 10% Acetone, 1.7% MIPA, 5% DMSO, 0.85% TWEEN20, 1.7% HASTEN.
[12] abbreviates: 1000 g/ha, 2% MIPA, 2% DMSO, 1% TWEEN20, 2% HASTEN.
Setting [13] is: 2000 g/ha, 2% MIPA, 2% DMSO, 1% TWEEN20, 2% HASTEN.
[14] abbreviates: 250 g/ha, 14% Acetone, 2% MIPA, 5% DMSO, 1% TWEEN20, 2% HASTEN.
[15] abbreviates: 330 g/ha, 5% Acetone, 2% MIPA, 2.5% DMSO, 0.25% Genapol, 2% HASTEN.
The mark [16] stands for this setting: 330 g/ha, 10% Acetone, 0.8% MIPA, 5% DMSO, 0.25% Genapol, 2% HASTEN.
The mark [17] stands for this setting: 330 g/ha, 10% Acetone, 2% MIPA, 5% DMSO, 0.25% Genapol, 2% HASTEN.
Setting [18] is: 500 g/ha, 18.5% Acetone, 2% MIPA, 5% DMSO, 1% TWEEN20, 2% HASTEN.
Setting [19] is: 2000 g/ha, 2% MIPA, 1% TWEEN20, 2% HASTEN.

Consider `O=C(O)c1cc(O)c2c(c1)C(=O)c1cccc(O[C@@H]3O[C@H](CO)[C@@H](O)[C@H](O)[C@H]3O)c1C2=O` [Compound 1B, Rhein 8-glucoside], for which the “Activity Score” value in the test with Amaranthus palmeri [1] (500 g/ha, 2% TWEEN 20, 0.05M Tris buffer pH 8.3, 0.05% Break-Thru) amounted to 30; in the test on Amaranthus palmeri [1] (750* g/ha (rate adjusted to reflect that of the Rhein actual active ingredient), 2% TWEEN 20, 5.7 mM MIPA, 0.05% Break-Thru), 70; in the test with Setaria viridis [2] (750* g/ha (rate adjusted to reflect that of the Rhein actual active ingredient), 1% Eta-70, 5.7 mM MIPA, 0.05% Break-Thru) it was 50. Also, the Herbicidal activity score is on record as 85 in the test with Amaranthus palmeri [3] (setting [5]); 100 in the test on Amaranthus palmeri [3] (setting [6]); 100 in the test on Amaranthus palmeri [3] (setting [7]); 70 in the test with Setaria viridis [4] (setting [5]); 95 in the test on Setaria viridis [4] (setting [6]); 90 in the test with Setaria viridis [4] (setting [7]).
With `O=C(O)c1ccc2c(c1)C(=O)c1ccccc1C2=O` [Compound 2], the “Activity Score” value in the test on Amaranthus palmeri [1] (500 g/ha, 4.3% Acetophenone, 1% TWEEN 80, 0.7% NMP, 0.25% ECO, 0.25% Ca-LAS, 0.05% Break-Thru) worked out at 100; in the test on Amaranthus palmeri [1] (setting [8]), 95; in the test with Amaranthus palmeri [1] (2000 g/ha, 2% DMSO, 1% TWEEN 80, 0.05M Tris buffer pH 8, 0.05% Break-Thru) it was 100; with Setaria viridis [2] (1500 g/ha, 2% DMSO, 1% TWEEN 80, 0.05M Tris buffer pH 8, 0.05% Break-Thru), 40.
On to `COC(=O)c1ccc2c(c1O)C(=O)c1ccccc1C2=O` [Compound 3], for which the “Activity Score” value in the test on Amaranthus palmeri [1] (setting [9]) is recorded as 80; in the test on Setaria viridis [2] (setting [9]), 10. The Herbicidal activity score in the test with Amaranthus palmeri [3] (setting [10]) came to 91; with Amaranthus palmeri [3] (setting [11]) it was 99; in the test with Amaranthus palmeri [3] (setting [12]) it was 95; in the test on Amaranthus palmeri [3] (setting [13]), 95; in the test on Setaria viridis [4] (setting [10]), 63; in the test on Setaria viridis [4] (setting [11]), 88. Further, the Herbicidal activity score in the test with Setaria viridis [4] (setting [12]) was determined as 95; in the test with Setaria viridis [4] (setting [13]), 100.
Consider `O=C1c2ccccc2C(=O)c2cc(CO)ccc21` [Compound 4], for which the “Activity Score” value with Amaranthus palmeri [1] (setting [8]) is 95; in the test with Amaranthus palmeri [1] (1500 g/ha, 8.6% Acetophenone, 4% TWEEN 20, 1.4% NMP, 0.5% ECO, 0.5% Ca-LAS, 0.05% Break-Thru), 95; with Setaria viridis [2] (1500 g/ha, 6% DMSO, 0.05% Break-Thru), 40. Further, the Herbicidal activity score came out at 85 with Amaranthus palmeri [3] (setting [10]); 90 in the test with Amaranthus palmeri [3] (setting [14]); 88 with Amaranthus palmeri [3] (setting [15]); 93 in the test on Amaranthus palmeri [3] (setting [16]); 80 with Amaranthus palmeri [3] (setting [17]); 95 in the test with Amaranthus palmeri [3] (setting [18]). The Herbicidal activity score stood at 45 in the test on Setaria viridis [4] (setting [10]); 90 in the test with Setaria viridis [4] (setting [14]); 80 with Setaria viridis [4] (setting [15]); 75 in the test on Setaria viridis [4] (setting [16]); 88 in the test with Setaria viridis [4] (setting [17]); 50 in the test on Setaria viridis [4] (setting [18]).
As to `Cc1cc(O)c2c(c1)C(=O)c1cc(O)cc(O)c1C2=O` [Compound 5], in the test with Amaranthus palmeri [1] (setting [9]), the “Activity Score” value is listed as 70. In addition, the Herbicidal activity score with Amaranthus palmeri [3] (setting [12]) is listed as 95; in the test with Amaranthus palmeri [3] (setting [19]) it was 100; with Setaria viridis [4] (setting [12]), 75; with Setaria viridis [4] (setting [19]) it was 90.
With `O=C1c2ccccc2C(=O)c2c(O)cccc21` [Compound 6], the “Activity Score” value in the test on Amaranthus palmeri [1] (1500 g/ha, 8.6% Acetophenone, 1% TWEEN 80, 1.4% NMP, 0.5% ECO, 0.5% Ca-LAS, 0.05% Break-Thru) is 75; in the test on Setaria viridis [2] (setting [8]), 80. In addition, the Herbicidal activity score in the test with Amaranthus palmeri [3] (setting [14]) is recorded as 10; with Amaranthus palmeri [3] (setting [18]), 70; in the test with Amaranthus palmeri [3] (setting [12]), 70; in the test on Amaranthus palmeri [3] (setting [13]), 90; with Setaria viridis [4] (setting [14]), 90; in the test on Setaria viridis [4] (setting [18]) it was 40. Besides, the Herbicidal activity score stood at 90 in the test with Setaria viridis [4] (setting [12]) and 95 in the test on Setaria viridis [4] (setting [13]).
`Nc1ccc(O)c2c1C(=O)c1ccccc1C2=O` [Compound 7]: the “Activity Score” value in the test with Amaranthus palmeri [1] (setting [9]) was 40.
